Consider 7 molecules from patent US4605642A, “CRF antagonists” (The Salk Institute for Biological Studies, priority 1984, dated 1986).

Square brackets hold non-standard residues; d marks the D form. Peptide text beside a SMILES is read from it. Nle = CCCC[C@H](N)C(=O)O

The test system of one assay is ACTH secretion. Nature of the assay: ACTH secretion in vivo after intravenous hCRF in rat preparations. As to the method: (§1) Plasma levels of ACTH and β-END-LI are elevated for at least 5-20 minutes following the intraveneous administration of hCRF to nembutal-anesthesized male rats and to quiescent male or female rats with indwelling intravenous cannulae.
In another assay the test system is β-END-LI secretion. Nature of the assay: β-END-LI secretion in vivo after intravenous hCRF in rat preparations. As to the method: as §1
Assay [1] concerns secretion of ACTH by cultured rat pituitary cells. Nature of the assay: Blocking of oCRF-stimulated ACTH secretion by cultured rat pituitary cells. In kind it is cell-based. The note with it: for inhibition of the secretion of ACTH (in words): general procedure set forth in Example III. As to the method: (§2) The effectiveness of synthetic CRF antagonists to block the secretion of ACTH and β-endorphin by cultured rat pituitary cells is measured using the procedure as generally set forth in Vale et al., Endocrinology, 91, 562 (1972). In vivo testing is carried out using the general procedure set forth in C. Rivier et al., Science, 218, 377 (1982).

The subject of assay [2] is secretion of β-endorphin by cultured rat pituitary cells. Nature of the assay: Blocking of β-endorphin (β-END-LI) secretion by cultured rat pituitary cells. As to conditions: general procedure set forth in Example III. The class given is cell-based. The method, then: as §2
A short description of assay [3]: Blood pressure lowering by antagonist. The class given is in vivo. The note with it: general procedure set forth in Example III.
In assay [4] the test system is GRF-stimulated secretion of GH. Nature of the assay: Specificity: GRF-stimulated secretion of GH. In kind it is cell-based. As to conditions: specificity of inhibition.
The subject of assay [5] is GnRH-stimulated secretion of LH and FSH. Nature of the assay: Specificity: GnRH-stimulated secretion of LH and FSH. In kind it is cell-based. As to conditions: specificity of inhibition.
Assay [6] concerns TRF-stimulated secretion of TSH and prolactin. Nature of the assay: Specificity: TRF-stimulated secretion of TSH and prolactin. In kind it is cell-based. As to conditions: specificity of inhibition.
In a further assay the test system is spontaneous ACTH release. Nature of the assay: Spontaneous ACTH release by adrenalectomized rats. In kind it is in vivo, rat. As to conditions: iv 3 mg/kg BW (2.7 nmole). The method, then:
as §2
The in vivo effect of CRF antagonists is tested on the spontaneous ACTH release by adrenalectomized rats.

Setting [7] is: intravenous, nembutal-anesthetized male rats and quiescent cannulated male or female rats.

On to `CC[C@H](C)[C@H](NC(=O)[C@@H](NC(=O)[C@H](CCC(=O)O)NC(=O)[C@H](CCSC)NC(=O)[C@H](CC(C)C)NC(=O)[C@H](CCCCN)NC(=O)[C@H](CCCNC(=N)N)NC(=O)[C@H](CC(N)=O)NC(=O)[C@H](CO)NC(=O)[C@H](Cc1c[nH]cn1)NC(=O)[C@H](C)NC(=O)[C@H](CCC(N)=O)NC(=O)[C@H](CCC(N)=O)NC(=O)[C@H](C)NC(=O)[C@H](CC(C)C)NC(=O)[C@H](CCC(N)=O)NC(=O)[C@H](CCC(=O)O)NC(=O)[C@H](C)NC(=O)[C@H](CCCNC(=N)N)NC(=O)[C@H](C)NC(=O)[C@H](CCSC)NC(=O)[C@H](CCC(=O)O)NC(=O)[C@H](CC(C)C)NC(=O)[C@@H](NC(=O)[C@H](CCC(=O)O)NC(=O)[C@H](CCCNC(=N)N)NC(=O)[C@H](CC(C)C)NC(=O)[C@H](CC(C)C)NC(=O)[C@H](Cc1c[nH]cn1)NC(=O)[C@H](Cc1ccccc1)NC(=O)[C@@H](NC(=O)[C@H](CC(C)C)NC(=O)[C@H](CC(=O)O)NC(=O)[C@H](CC(C)C)NC(=O)[C@H](CO)NC(=O)[C@@H](NC(=O)[C@@H]1CCCN1C(=O)[C@@H]1CCCN1C(=O)[C@H](CCC(=O)O)NC(=O)[C@H](CCC(=O)O)NC(=O)[C@@H](N)CO)[C@@H](C)CC)[C@@H](C)O)C(C)C)[C@@H](C)CC)C(N)=O` [hCRF], for which, in the assay with ACTH secretion (setting [7]), the “time for which plasma levels of ACTH are elevated” value was in the range of 5 to 20 min. Further, in the assay with ACTH secretion (several rat preparations), the “stimulation of ACTH secretion in vivo” value was “powerful stimulator”. Moreover, in the assay on β-END-LI secretion (setting [7]), the “time for which plasma levels of β-END-LI are elevated” value fell in the range of 5 to 20 min. The “stimulation of β-END-LI secretion in vivo” value in the assay on β-END-LI secretion (several rat preparations) is listed as “powerful stimulator”.
As for “H-Asp-CML-Thr-Leu-Glu-CML-Leu-Arg-Glu-Met-CML-Glu-Met-Ala-Lys-Ala-Glu-Gln- CML-Ala-Glu-Gln-Ala-Ala-CML-Asn-Arg-Leu-CML-Leu-Glu-Glu-Ala-NH2 [[CML^10,14,19,27,33,38]-AHC(9-41)]”, the “inhibition of the secretion of ACTH (in words)” value (from here on “inhibition … of ACTH (in words)”) in assay [1] is on record as “inhibits the secretion”. Further, the “inhibition of the secretion of β-END-LI (in words)” value (from here on “inhibition … of β-END-LI (in words)”) in assay [2] is recorded as “inhibits the secretion”. In addition, in assay [3], the “lowering of blood pressure” value is “very significant lowering of blood pressure”.
“H-DLTFHLLREMLEMAKAEQEAEQAALNRLLLEEA-NH2 [AHC (9-41)]”: the IC50 in assay [1] (cultured rat pituitary cells, 1 nM oCRF, five independent experiments, read-out: concentration that blocks the secretion of ACTH due to 1 nM oCRF by 50%) was 197 ± 72 nM. Moreover, in assay [1] (several concentrations of oCRF and of antagonist, constant oCRF 1 nM), the “type of inhibition of oCRF-stimulated ACTH secretion” value is “competitive inhibition”. In addition, the “potency as CRF antagonist (in words)” value in assay [1] (test not stated at the place) is “particularly potent”. The “effect on the GRF-stimulated secretion of GH” value in [4] is given as “no effect”. Moreover, in [5], the “effect on the GnRH-stimulated secretion of LH and FSH” value was “no effect”. Further, the “effect on the TRF-stimulated secretion of TSH and prolactin” value in assay [6] was “no effect”. Besides, the “plasma ACTH levels (spontaneous ACTH release)” value in the assay with spontaneous ACTH release is reported as “marked decrease”.
For the molecule `CCCC[C@H](NC(=O)[C@H](CCC(=O)O)NC(=O)[C@H](CC(C)C)NC(=O)[C@@H](NC(=O)[C@H](CCC(=O)O)NC(=O)[C@H](CCCNC(=N)N)NC(=O)[C@H](CC(C)C)NC(=O)[C@H](CC(C)C)NC(=O)[C@H](Cc1c[nH]cn1)NC(=O)[C@H](Cc1ccccc1)NC(=O)[C@@H](NC(=O)[C@H](CC(C)C)NC(=O)[C@@H](N)CC(=O)O)[C@@H](C)O)C(C)C)C(=O)N[C@@H](C)C(=O)N[C@@H](CCCNC(=N)N)C(=O)N[C@@H](C)C(=O)N[C@@H](CCC(=O)O)C(=O)N[C@@H](CCC(N)=O)C(=O)N[C@@H](CC(C)C)C(=O)N[C@@H](C)C(=O)N[C@@H](CCC(N)=O)C(=O)N[C@@H](CCC(N)=O)C(=O)N[C@@H](C)C(=O)N[C@@H](Cc1ccc(O)cc1)C(=O)N[C@@H](CO)C(=O)N[C@@H](CC(N)=O)C(=O)N[C@@H](CCCNC(=N)N)C(=O)N[C@@H](CCCCN)C(=O)N[C@@H](CC(C)C)C(=O)N[C@@H](CCSC)C(=O)N[C@@H](CCC(=O)O)C(=O)N[C@H](C(=O)N[C@H](C(N)=O)[C@@H](C)CC)[C@@H](C)CC` [[Nle^21, Tyr^32]-hCRF(9-41)] (H-DLTFHLLREVLE[Nle]ARAEQLAQQAYSNRKLMEII-NH2), the “inhibition … of ACTH (in words)” value in assay [1] is reported as “inhibits the secretion”. Further, in assay [2], the “inhibition … of β-END-LI (in words)” value was “inhibits the secretion”.
Regarding `CCCC[C@H](NC(=O)[C@H](CCC(=O)O)NC(=O)[C@H](CC(C)C)NC(=O)[C@H](CCCC)NC(=O)[C@H](CCC(=O)O)NC(=O)[C@H](CCCNC(=N)N)NC(=O)[C@H](CC(C)C)NC(=O)[C@H](CC(C)C)NC(=O)[C@H](Cc1c[nH]cn1)NC(=O)[C@H](Cc1ccccc1)NC(=O)[C@@H](NC(=O)[C@H](CC(C)C)NC(=O)[C@H](CC(=O)O)NC(=O)[C@@H](N)CC(C)C)[C@@H](C)O)C(=O)N[C@@H](C)C(=O)N[C@@H](CCCCN)C(=O)N[C@@H](C)C(=O)N[C@@H](CCC(=O)O)C(=O)N[C@@H](CCC(N)=O)C(=O)N[C@@H](CCC(=O)O)C(=O)N[C@@H](C)C(=O)N[C@@H](CCC(=O)O)C(=O)N[C@@H](CCC(N)=O)C(=O)N[C@@H](C)C(=O)N[C@@H](C)C(=O)N[C@@H](CC(C)C)C(=O)N[C@@H](CC(N)=O)C(=O)N[C@@H](CCCNC(=N)N)C(=O)N[C@@H](CC(C)C)C(=O)N[C@@H](CC(C)C)C(=O)N[C@@H](CC(C)C)C(=O)N[C@@H](CCC(=O)O)C(=O)N[C@@H](CCC(=O)O)C(=O)N[C@@H](C)C(N)=O` [[Nle^18,21]-AHC(8-41)] (H-LDLTFHLLRE[Nle]LE[Nle]AKAEQEAEQAALNRLLLEEA-NH2), the “inhibition … of ACTH (in words)” value in assay [1] was “inhibits the secretion”. In assay [2], the “inhibition … of β-END-LI (in words)” value was “inhibits the secretion”.
With “H-IDLTFHLLRNMIEMARNENQREQAGLNRKYLDEV-NH2 [Carp Urotensin I(8-41)]”, the “inhibition … of ACTH (in words)” value in [1] is given as “inhibits the secretion”. Moreover, the “inhibition … of β-END-LI (in words)” value in assay [2] was “inhibits the secretion”.
For “H-DLTFALLREMLEMAKAEQEAEQAALNRLLLEEA-NH2 [[Ala^13]-AHC(9-41)]”, the “inhibition … of ACTH (in words)” value in assay [1] is listed as “inhibits the secretion”. The “inhibition … of β-END-LI (in words)” value in assay [2] is given as “inhibits the secretion”.
